“Also recorded” adds a separate entry of the source.
Assays:
EPAC2 = target: T1, EPAC2 (Homo sapiens, UniProt Q8WZA2); assay: Rap1 activation assay in HEK293/EPAC2 cells; type: cell-based; details: HEK293/EPAC2 cells; pre-treatment with 10 μM compound
T1 construct: HEK293 cells that ectopically express full-length EPAC2 proteins; expressed in transfected cells; host or cells: HEK293
Protocol: (§1) FIGS. 9A-9B. Effects of EPAC2-specific antagonists on 007-AM-mediated cellular activation of Rap1. […] GTP-bound Rap1 (Rap1GTP) obtained by a Ral-GDSRBD-GST pull-down assay and total cellular Rap1 were detected by immunoblotting with Rap1-specific antibody. […] At test was used to determine statistical significance (*P<0.05).
(§2) Cellular activation of Rap1 was determined by pull-down of lysates derived from human vascular smooth muscle cell and HEK293 cells stably expressing EPAC1 or EPAC2 employing Ral-GDS-RBD-GST affinity beads as described earlier (Mei and Cheng (2005) Molecular Biosystems 1: 325-331).

EPAC1 = target: T2, EPAC1 (Homo sapiens, UniProt O95398); assay: Rap1 activation assay in HEK293/EPAC1 cells; type: cell-based
T2 sequence (O95398 1-923): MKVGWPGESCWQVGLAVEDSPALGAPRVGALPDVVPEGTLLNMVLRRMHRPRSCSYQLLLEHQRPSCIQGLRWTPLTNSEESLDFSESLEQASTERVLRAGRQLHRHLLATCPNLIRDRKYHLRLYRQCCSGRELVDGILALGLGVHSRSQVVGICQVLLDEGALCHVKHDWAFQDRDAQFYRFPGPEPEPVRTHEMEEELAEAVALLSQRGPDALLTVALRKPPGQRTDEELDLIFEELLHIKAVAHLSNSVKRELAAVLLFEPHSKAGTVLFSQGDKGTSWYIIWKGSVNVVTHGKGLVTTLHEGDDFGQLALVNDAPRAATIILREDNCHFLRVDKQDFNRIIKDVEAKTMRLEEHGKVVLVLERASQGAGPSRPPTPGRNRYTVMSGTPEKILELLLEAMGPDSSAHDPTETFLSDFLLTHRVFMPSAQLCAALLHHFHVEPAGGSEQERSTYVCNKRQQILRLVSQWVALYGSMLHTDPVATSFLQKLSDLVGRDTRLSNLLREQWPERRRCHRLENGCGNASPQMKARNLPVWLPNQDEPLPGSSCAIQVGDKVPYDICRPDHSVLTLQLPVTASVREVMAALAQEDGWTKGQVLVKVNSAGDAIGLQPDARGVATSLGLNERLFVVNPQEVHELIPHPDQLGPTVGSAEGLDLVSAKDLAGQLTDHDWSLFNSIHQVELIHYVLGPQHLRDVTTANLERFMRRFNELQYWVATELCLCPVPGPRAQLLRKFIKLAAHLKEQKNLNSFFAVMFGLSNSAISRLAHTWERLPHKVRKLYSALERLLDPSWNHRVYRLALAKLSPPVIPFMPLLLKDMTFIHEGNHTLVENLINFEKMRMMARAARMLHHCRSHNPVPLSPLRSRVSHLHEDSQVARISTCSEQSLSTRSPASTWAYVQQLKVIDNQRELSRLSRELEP
Protocol: as §1, §2

AsPC-1 and PANC-1 cells = assay: Pancreatic cancer cell viability, alamar blue assay; type: cell-based; set-up: dose or concentration left out as unconfirmed; details: ESI-09 for 24 hours and 48 hours
Protocol: FIG. 11. Effects of ESI-09 treatment on pancreatic cancer cell viability. AsPC-1 and PANC-1 cells were treated with vehicle control (open bars) or with […] ESI-09 (filled bars) for 24 hours and 48 hours. Cell viability was measured by a fluorometric alamar blue assay. Bars represent mean±s.d. (n=3).

[1] = test system: AsPC-1, BxPC-3, and PANC-1; assay: Wound healing assay; type: cell-based; details: 10.0 μM; AsPC-1, BxPC-3, PANC-1
Protocol: Cells were grown to 95-100% confluency before a scratch wound was made. The medium was changed to RPMI 10% FBS containing 10.0 μM ESI-09. The cells were then incubated at 37° C. in 5% CO2. The wound was imaged at 0 hours and 22 hours after changing the medium. Healing rate was determined by calculating the percentage of wound closure normalized to a 1.0 mm wound according to the following equation: % wound closure=(distance between the edges of the wound before treatment with ES-09−distance between the edges of the wound 22 hours post treatment with ES-09)/1.0×100.

[2] = test system: OVA-specific IgG1 antibodies; assay: Oral ovalbumin immunization, serum OVA-IgG1; type: in vivo; details: WT mice, oral gavage 50 mg/kg, versus vehicle
R. australia = R. australia infection of HUVEC cells, immunofluorescence; type: cell-based; details: 24 hours post infection
Protocol: FIG. 22. ESI-09 treatment suppresses cellular entry of R. australia. HUVEC cells treated with vehicle or ESI-09 were infected with R. australia. The levels of R. australia (Red) and EPAC1 (Green) were monitored with immunofluorescence staining 24 hours post infection.
To investigate the mechanism of EPAC1 inhibition-mediated protection of R. australia infection, HUVEC cells treated with vehicle or ESI-09 were infected with R. australia.

[3] = In vivo pharmacokinetic study, blood time-concentration curve; details: single IP injection 10 mg/kg, mice
Protocol: FIG. 19. Mice blood time-concentration curve of ESI-09.
To determine the bioavailability of EPAC inhibitors, an IP injection formulation was developed in which the compounds were dissolved in ethanol and then diluted 1:10 with a 10% Tween 80 in normal saline solution. This formulation was determined suitable by passing the simulated in vivo blood dilution assay. In vivo pharmacokinetic studies were performed in four week old female C57BL6/N mice.

T1 sequence (Q8WZA2 whole entry, species assumed): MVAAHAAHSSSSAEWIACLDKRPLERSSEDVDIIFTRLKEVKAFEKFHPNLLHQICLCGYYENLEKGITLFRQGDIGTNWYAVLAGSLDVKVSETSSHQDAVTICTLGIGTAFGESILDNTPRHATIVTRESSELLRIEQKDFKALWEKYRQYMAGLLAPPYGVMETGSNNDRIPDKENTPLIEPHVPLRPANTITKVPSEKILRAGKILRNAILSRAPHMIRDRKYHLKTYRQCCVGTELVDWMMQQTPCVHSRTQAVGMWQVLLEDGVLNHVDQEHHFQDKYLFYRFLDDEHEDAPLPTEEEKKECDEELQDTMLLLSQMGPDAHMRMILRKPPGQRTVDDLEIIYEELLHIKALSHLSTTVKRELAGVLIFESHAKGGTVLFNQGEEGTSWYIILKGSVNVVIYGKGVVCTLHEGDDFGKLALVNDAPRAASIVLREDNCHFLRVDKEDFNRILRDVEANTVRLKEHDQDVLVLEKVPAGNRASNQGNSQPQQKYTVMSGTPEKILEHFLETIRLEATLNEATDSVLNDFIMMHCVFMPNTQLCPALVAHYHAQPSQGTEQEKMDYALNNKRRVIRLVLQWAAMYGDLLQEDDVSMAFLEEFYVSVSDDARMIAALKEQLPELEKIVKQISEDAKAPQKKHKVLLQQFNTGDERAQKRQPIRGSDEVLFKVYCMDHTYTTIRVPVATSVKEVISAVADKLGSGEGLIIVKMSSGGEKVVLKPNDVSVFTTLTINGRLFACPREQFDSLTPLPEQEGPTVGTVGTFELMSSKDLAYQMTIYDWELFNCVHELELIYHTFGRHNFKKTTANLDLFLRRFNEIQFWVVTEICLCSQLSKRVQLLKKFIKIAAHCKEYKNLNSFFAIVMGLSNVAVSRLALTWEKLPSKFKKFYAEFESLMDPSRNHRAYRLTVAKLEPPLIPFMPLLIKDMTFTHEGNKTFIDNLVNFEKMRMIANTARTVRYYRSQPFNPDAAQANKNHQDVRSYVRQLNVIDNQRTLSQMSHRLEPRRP

For `CC(C)(C)c1cc(C(=O)C(C#N)=NNc2cccc(Cl)c2)no1` [ESI-09, 3-(5-Tert-Butyl-Isoxazol-3-Yl)-2-[(3-Chlorophenyl)-Hydrazono]-3-Oxo-Propionitrile], the “007-AM induced Rap1 activation” value (EPAC2) was “significant reduction”, the “007-AM induced Rap1 activation” value (EPAC1) was “effective” and the “cell proliferation and viability” value (AsPC-1 and PANC-1 cells) was “did not significantly affect”. For the same compound, the “cell migration, wound healing” value [1] was “significant decrease; also recorded: significantly (P<0.05) decreased”, the “serum OVA-specific IgG1 antibodies” value [2] was “significantly higher; also recorded: increases” and the “number of intracellular R. australia (cellular entry)” value (R. australia) was “dramatically reduced; also recorded: suppresses”. The half-life ([3]; female, C57BL6/N, mouse, whole blood) was 3.5 h, the “blood levels, maximal values” [3] was 42,520 ng/ml and the “time of maximal blood level” value [3] was 0.5 h.
